In ChEMBL document CHEMBL4000204, “Improving potency and metabolic stability by introducing an alkenyl linker to pyridine-based histone deacetylase inhibitors for orally available RUNX3 modulators” (Eur J Med Chem, 2017):

Legend:
in vitro [1] = conditions: mouse, liver microsomes
in vitro [2] = conditions: mouse, liver microsomes; remark: listed apart in the source

| SMILES | remaining at 0.5 h, 1000 µM (in vitro [1]) | remaining at 0.5 h, 1000 µM (in vitro [2]) |
| --- | --- | --- |
| O=C1CC2(CCCC2)CC(=O)N1CCCCN1CCN(c2ncccn2)CC1 [BUSPIRONE] | 99.1% | 0.29% |
| O=C(/C=C/c1cccn(CCCc2ccc3ccccc3c2)c1=O)NO | 90.3% | 35.5% |
